In publication PMC8570331, “8-Hydroxyquinoline-Amino Acid Hybrids and Their Half-Sandwich Rh and Ru Complexes: Synthesis, Anticancer Activities, Solution Chemistry and Interaction with Biomolecules” (International Journal of Molecular Sciences, 2021):
Marks after values point to notes of the source that are not given here.

Experiments:
[1] = Proton dissociation and H2O/Cl- exchange constants of the complexes (UV-vis, 1H NMR); assay type: physicochemical; details: T = 25.0 °C; for logK′ (H2O/Cl−) conditional exchange constant: pH 7.4; for pKa1 of the complex / pKa2 of the complex: I = 0.2 M KNO3
Method: In the basic pH range, both the UV-vis and ^1H NMR spectra recorded for the [M(arene)(H2O)3]^2+–ligand (1:1) systems reveal the further chemical transformation of the [M(arene)(HQCl-D-(h)ProH−1)(H2O)]^+ species. […] It should be noted that peaks of the p-cymene CH3 groups are doubled at pH > 10 (Figure S21b), indicating the loss of their symmetry due to the formation of the hydroxido complex, which probably blocks the free rotation of the arene ligand. Two pKa values were determined by both methods for each RuCym complex that is in good agreement (Table 3).
These deprotonation processes take place at somewhat higher pH in the case of the RhCp* complexes compared to the RuCym compounds; however, other differences were also observed.
Thus, only one pKa value could be computed (Table 3), which is rather assigned to the H2O → OH^− process. The peaks of the protons in the ^1H NMR spectra located nearby the metal center (both 8-hydroxyquinoline CH and CH3 protons of RhCp*) and the peaks of the homoproline moiety are shifted by increasing the pH (Figure S22b,c). […] Due to this side-reaction, no pKa values were calculated from the ^1H NMR spectra.
Based on the determined pKa values of the complexes (Table 3), it can be concluded that at physiological pH all of them are present predominantly in their [M(arene)(HQCl-D-(h)ProH−1)(H2O)]^+ form. However, in the presence of chloride ions, the exchange of the aqua ligand to the halide ligand is possible. The water/chloride co-ligand exchange process was monitored spectrophotometrically at pH 7.4, as it was performed for other RuCym and RhCp* complexes in our previous works. […] It can be concluded that the RhCp* complexes have stronger chloride ion affinity. The coordination of the chloride ion changes the charge of the complex; thus, it will also influence lipophilicity. In order to characterize the hydrophilic/lipophilic character of the complexes, n-octanol/buffer aqueous solution partitioning was performed at pH 7.4. The measurements were performed at three kinds of chloride ion concentrations regarding different biofluids (4, 24 and 100 mM for nucleus, cytosol and blood, respectively). The calculated logD7.4 values can be found in Figure 8.
(§1) Agilent Cary 8454 diode array spectrophotometer was utilized to obtain UV-vis spectra in the wavelength range 190–1100 nm. The path length (ℓ) was 1 cm in most cases (the actual ℓ is always indicated in the legends of the figures). The concentrations of the ligands and complexes were between 88 and 240 µM. For HSA and ct-DNA containing samples, complex concentrations were 100 µM, and 0.5 and 2 equiv. biomolecule were added for kinetic studies, respectively. Individual samples contained 0–20 µM HSA and 0–1.75 mM (nucleotide) ct-DNA. Spectra were always background corrected. The computer program HypSpec was used to obtain stability constants.
Bruker Avance III HD Ascend 500 Plus instrument (Billerica, MA, USA) was used for NMR studies. ^1H NMR spectroscopic measurements were carried out with a WATERGATE water suppression pulse scheme in the presence of 10% (v/v) D2O in most cases. DSS internal standard was added to samples to obtain reference peaks. Complex concentrations were 0.5 mM or 1.0 mM, and 0.5 equiv. HSA was added. ^1H NMR titrations were carried out in the presence of 0.2 M KNO3. With the FHA model peptide, the measurements were performed at 0.5 or 1 mM metal complex concentrations, and 1:1, 1:2 or 2:1 peptide-to-metal complex ratios were applied. The computer program HypSpec was used to obtain stability constants.

[2] = Formation constants of RhCp* complexes by ligand displacement with 2-picolylamine; assay type: physicochemical; details: pH 7.4, displacement by 2-picolylamine, UV-vis, chloride-free
Source text: Besides 2-picolylamine, the rigid aromatic 1,10-phenantroline (phen, Figure 6) or the excess of the 8-hydroxyquinoline ligand itself (Figure S20) also results in the loss of p-cymene. Two main processes were seen upon the addition of two equiv. phen to the complex (Figure 6). The first step is most probably the loss of the arene ring and the formation of a mixed-ligand complex [Ru(II)(HQCl-D-ProH−1)(phen)(H2O)2]^+ (λmax = 500 nm), which is followed by the slower binding of the second phen.
as §1

[3] = Rate of complex formation followed by UV-vis; assay type: physicochemical; details: pH 0.7, equimolar ligand and [M(arene)(H2O)3]2+
Method: The complex formation processes were followed in the absence of chloride ions, similar to our previous studies, to obtain comparative data. Time dependence of UV-vis spectra recorded for the equimolar solution of the ligand and [M(arene)(H2O)3]^2+ at pH 0.7 and 4.1 was followed. The charge-transfer band in the 340–500 nm region is a good indicator for complexation. […] The equilibration time decreased to <2 min for both RhCp* complexes at pH 4.1, while ~1.5 h was needed for the RuCym complexes, as it is shown in Figure S18. Although, in the isolated solid complexes, the neutral ligands are coordinated, in solution under this condition, the formation of complexes with the general formula [M(arene)(HQCl-D-(h)ProH−1)(H2O)]^+ is expected due to the deprotonation of the non-coordinating carboxyl group. In summary, these findings clearly indicate the high stability of the title complexes and the considerable difference in the rate of complex formation with the two types of metal ions.
Agilent Cary 8454 diode array spectrophotometer was utilized to obtain UV-vis spectra in the wavelength range 190–1100 nm. The path length (ℓ) was 1 cm in most cases (the actual ℓ is always indicated in the legends of the figures). The concentrations of the ligands and complexes were between 88 and 240 µM. […]

Colo-205 cells = assay: Annexin V-FITC / propidium iodide apoptosis induction assay, flow cytometry; assay type: cell-based, human; details: 25 μM, 3 h induction
Source text: 12H-Benzo[α]phenothiazine (M627) and cisplatin were used as positive controls. Annexin-V assay offers the possibility of detecting early phases of apoptosis. Apoptosis is a morphologically and biochemically distinct form of programmed cell death, which is the preferred mode of action for an anticancer compound. PI was used to distinguish between viable, early apoptotic and necrotic or late apoptotic cells. […] In order to better understand the different behavior of the studied compounds, an in-depth analysis of the various solution (physico-)chemical properties of the ligands and complexes were performed.
The assay was carried out using an Annexin V-FITC Apoptosis Detection Kit from Sigma-Aldrich according to the manufacturer’s instructions. The concentration of the Colo-205 cell suspension was adjusted to approximately 0.5 × 10^6 cells per mL in RPMI 1640 medium, and the cell suspension was distributed in 1 mL aliquots into a 24-well plate and then incubated overnight at 37 °C and 5% CO2. The next day, the medium was removed and replaced by 1 mL RPMI 1640 medium containing the compounds except for the control samples. […] After the incubation period, the samples were washed with PBS, and a fresh medium was added to the samples. The cells were incubated overnight at 37 °C and 5% CO2. The next day, 200 μL 0.25% Trypsin (Trypsin-Versen) was added to the samples until cells appeared detached, followed by the addition of 400 μL of medium supplemented with 10% bovine serum. The cells were collected in Eppendorf tubes and centrifuged at 2000× g for 2 min. The harvested cells were re-suspended in a fresh serum-free RPMI 1640 culture medium. After this step, the apoptosis assay was carried out according to the protocol of the kit. The fluorescence was analyzed immediately using a ParTec CyFlow flow cytometer (Partec GmbH, Münster, Germany).

Cc1c(C)c(C)[c-](C)c1C.O=C(O)[C@H]1CCC[NH+]1Cc1cc(Cl)c2cccnc2c1[O-].[Cl-].[Cl-].[Rh+3] [RhCp*–HQCl-D-Pro, [RhCp*(HQCl-D-Pro)Cl]Cl]
logK′ (H2O/Cl−) conditional exchange constant ([1]; UV-vis): 1.72 ± 0.01
pKa1 of the complex ([1]; UV-vis, chloride-free): 10.08 ± 0.02
stability constant logK of the RhCp* complex [2]: 13.48 ± 0.03
time to reach complex formation equilibrium [3]: ~ 30 min

O=C(O)[C@H]1CCCCN1Cc1cc(Cl)c2cccnc2c1O [HQCl-D-hPro, (R)-5-chloro-7-((homoproline-1-yl)methyl)8-hydroxyquinoline]
cell death (Q1, A− PI+), gated events (Colo-205 cells): 27.5%
early apoptosis (Q3, A+ PI−), gated events (Colo-205 cells): 0.987%
late apoptosis and necrosis (Q2, A+ PI+), gated events (Colo-205 cells): 9.1%

Cc1c(C)c(C)[c-](C)c1C.O=C(O)[C@H]1CCCC[NH+]1Cc1cc(Cl)c2cccnc2c1[O-].[Cl-].[Cl-].[Rh+3] [RhCp*–HQCl-D-hPro, [RhCp*(HQCl-D-hPro)Cl]Cl]
cell death (Q1, A− PI+), gated events (Colo-205 cells): 20.7%
early apoptosis (Q3, A+ PI−), gated events (Colo-205 cells): 0.838%
late apoptosis and necrosis (Q2, A+ PI+), gated events (Colo-205 cells): 7.5%
late apoptosis and necrosis (Q2, A+ PI+), gated events (Colo-205 cells; listed as RhCp*‒HQCl-D-hPro): 7.50%
pKa1 of the complex ([1]; 1H NMR): 9.82 ± 0.13 ^a
pKa2 of the complex ([1]; 1H NMR): 10.06 ± 0.06 ^b
logK′ (H2O/Cl−) conditional exchange constant ([1]; UV-vis): 1.79 ± 0.01
pKa1 of the complex ([1]; UV-vis, chloride-free): 10.11 ± 0.02
stability constant logK of the RhCp* complex [2]: 13.35 ± 0.03
time to reach complex formation equilibrium [3]: ~ 3 min

Cc1ccc(C(C)C)cc1.O=C(O)[C@H]1CCC[NH+]1Cc1cc(Cl)c2cccnc2c1[O-].[Cl-].[Cl-].[Ru+2] [RuCym–HQCl-D-Pro, [RuCym(HQCl-D-Pro)Cl]Cl]
cell death (Q1, A− PI+), gated events (Colo-205 cells): 27.9%
early apoptosis (Q3, A+ PI−), gated events (Colo-205 cells): 0.288%
late apoptosis and necrosis (Q2, A+ PI+), gated events (Colo-205 cells): 5.37%
pKa1 of the complex ([1]; 1H NMR): 9.02 ± 0.07
pKa2 of the complex ([1]; 1H NMR): 10.69 ± 0.06
logK′ (H2O/Cl−) conditional exchange constant ([1]; UV-vis): 1.18 ± 0.01
pKa1 of the complex ([1]; UV-vis, chloride-free): 8.96 ± 0.01
pKa2 of the complex ([1]; UV-vis, chloride-free): 10.67 ± 0.01

Cc1ccc(C(C)C)cc1.O=C(O)[C@H]1CCCC[NH+]1Cc1cc(Cl)c2cccnc2c1[O-].[Cl-].[Cl-].[Ru+2] [RuCym–HQCl-D-hPro, [RuCym(HQCl-D-hPro)Cl]Cl]
late apoptosis and necrosis (Q2, A+ PI+), gated events (Colo-205 cells): 5.4%
pKa1 of the complex ([1]; 1H NMR): 8.77 ± 0.05
pKa2 of the complex ([1]; 1H NMR): 10.13 ± 0.04
logK′ (H2O/Cl−) conditional exchange constant ([1]; UV-vis): 1.28 ± 0.01
pKa1 of the complex ([1]; UV-vis, chloride-free): 8.78 ± 0.01
pKa2 of the complex ([1]; UV-vis, chloride-free): 10.03 ± 0.02
